Read-outs that look alike come from different tables or passages of the source.

Data set [1] relates to sindbis virus. It is filed as cell-based. To be noted: compared with activity against myxoviruses.
In data set [2] the test system is MeV H and F mediated cell-to-cell fusion. In words: MeV glycoprotein-mediated cell-to-cell fusion assay. To be noted: microscopic and luciferase reporter-based. The arrangement: species or system measles virus. For orientation: A reporter such as luciferase makes a cellular process visible.
Data set [3] in a line: Cytotoxicity (metabolic activity), HeLa. It is filed as cell-based. To be noted: human, HeLa cells, highest concentration assessed 75 µM. The protocol:
(§1) A non-radioactive cytotoxicity assay (CytoTox 96 Non-Radioactive Cytotoxicity Assay, Promega) was employed to determine the metabolic activity of cell after exposure to the compound. In a 96-well plate format, 10,000 cells per well were incubated at 37°C for 24 hours in four replicates per concentration tested in the presence of compound in two-fold dilutions starting at 75 µM. Substrate was then added and color development measured at 490 nm using a BioRad plate reader. Values were calculated according to the formula [% toxicity = 100−((experimental-background)/(maximum(vehicle treated)-background)*100)]. Values were plotted in dose-response curves and, if applicable, CC50 concentrations calculated.

The test system of data set [4] is MeV-Alaska particles. In words: Virus pre-incubation (virucidal activity) assay. It is filed as cell-based, measles virus. To be noted: 1.0 µM for 60 minutes, diluted to 1.0 nM.
Data set [5] deals with MuV (S. Africa). In words: microbe, parasite or virus in culture. To be noted: Mumps orthorubulavirus; titered through plaque assaying. The class given is cell-based, mumps virus strain South Africa.
Data set [6] relates to MeV-Alaska. In words: Immunodetection of virus-encoded MeV-F. The class given is cell-based, measles virus. To be noted: 100 nM.
Data set [7] concerns Vero cells. In words: Cell growth rates after compound wash-out. It is filed as cell-based. To be noted: 10 µM for 30 hours, 72-hour growth. The protocol: Vero cells were seeded at a density of 6×10^5 cells and incubated in the presence of 10 µM JMN3-003 or vehicle only for 30 hours at 37°C. Cells were then washed extensively and reseeded at a density of 1×10^5 cells per well, followed by continued incubation at 37°C and assessment of life/dead cell numbers every 24 hours using a Countess automated cell counter (Invitrogen). Cells were reseeded as before when fastest growing cultures approached confluency. Growth rates were calculated for each 24-hour time interval using the Prism software package (GraphPad Software Inc.) based on the formula Y = Y0*exp(K*X) with Y equaling life cell numbers, Y0 the Y value at the starting time (t0), and K the growth constant equaling ln(2)/doubling-time.

In data set [8] the test system is para- and orthomyxovirus family members. In words: organism not typed. It is filed as cell-based.
Data set [9] concerns SOI Influenza A/Texas. In words: Virus yield reduction assay, SOI influenza A/Texas. The class given is cell-based, swine-origin influenza virus isolate S-OIV Texas. To be noted: genome copy numbers of released progeny particles by TaqMan RT-PCR.
In data set [10] the test system is HeLa cells. In words: Flow-cytometric analysis of cell cycle progression. It is filed as cell-based, human. To be noted: JMN3-003 10 µM 36 hours, nocodazole 200 ng/ml. The protocol: Actively proliferating HeLa cells were exposed to JMN3-003 (10 µM), hydroxyurea (4 mM), or nocodazole (200 ng/ml) for 36 hours, followed by resuspension in buffer I (20 mM citrate/PO, pH 3.0, 0.1 mM EDTA, 0.2 M Sucrose, 0.1% Triton X-100) and staining in buffer II (10 mM Citrate/PO, pH 3.8, 0.1 M sodium chloride, 20 µg/ml acridine orange) as described. Green fluorescence at 525 nm resulting from DNA intercalating acridine orange was then measured using a BD LSRII flow cytometer and FlowJo software (Tree Star) for data analysis. For comparison, unstained and stained, solvent-only exposed cells were examined in parallel.

In data set [11] the test system is Influenza A/WSN. In words: Immunodetection of virus-encoded influenza A/WSN M2. The class given is cell-based. To be noted: 100 nM. The protocol: Aliquots with equal total concentrations of cleared lysates (20,000×g; 10 min; 4°C) were mixed with 2x-urea buffer (200 mM Tris, pH 6.8; 8 M urea; 5% sodium dodecyl sulfate (SDS); 0.1 mM EDTA; 0.03% bromphenol blue; 1.5% dithiothreitol) and denatured for 25 min at 50°C. Samples were then fractionated on 10% SDS-polyacrylamide gels, blotted to polyvinylidene difluoride (PVDF) membranes (Millipore) and subjected to enhanced chemiluminescence detection (Pierce) using specific antisera directed against phosphorylated or non-phosphorylated cdc2-cyclin B kinase (Cell Signaling Technology), GAPDH (Abcam), the cytosolic tail of the MeV F protein [81], or influenza A/WSN virus M2 (Thermo Scientific). Immunostained PVDF membranes were developed using a ChemiDoc XRS digital imaging system (Bio-Rad) and horseradish peroxidase conjugated anti-species IgG (mouse or rabbit) antibodies. For densitometry, signals were quantified using the QuantityOne software package (Bio-Rad).

In data set [12] the test system is Influenza A/WSN. In words: Quantitation of influenza A/WSN antigenome and released progeny genome copies. The class given is cell-based. To be noted: MDCK cells, 24 hours.
Data set [13] in a line: Cytotoxicity (metabolic activity), HT1080. The class given is cell-based. To be noted: human, HT1080 cells, highest concentration assessed 75 µM. The protocol:
as §1

Data set [14] can be described thus: Cytotoxicity (metabolic activity), NIH-3T3. The class given is cell-based, Rodent-mouse. To be noted: mouse, NIH-3T3 cells, highest concentration assessed 75 µM. Here is the method: as §1
Data set [15] in a line: Stability in human plasma. To be noted: 120-minute incubation, 37°C.
Data set [16] deals with SOI Influenza A/Mexico. In words: Virus yield reduction assay, SOI influenza A/Mexico. It is filed as cell-based, swine-origin influenza virus isolate S-OIV Mexico. To be noted: genome copy numbers of released progeny particles by TaqMan RT-PCR. (In general: Quantitative PCR measures a nucleic acid by following its amplification.)
The target in data set [17] is MeV RdRp (Measles morbillivirus (Measles virus), UniProt P12576). In words: MeV minireplicon luciferase reporter assay. It is filed as cell-based. To be noted: BHK-T7 cells, 36 hours. Here is the method: BSR T7/5 cells (5×10^5/well) were transfected with plasmid DNAs encoding MeV-L (0.24 µg), MeV-N (0.94 µg) or MeV-P (0.29 µg) and 2 µg of the MeV luciferase minigenome reporter plasmid. Control wells included identical amounts of reporter and helper plasmids but lacked the L-encoding plasmid. At the time of transfection, JMN3-003 was added as specified, while control wells received vehicle only for comparison. Thirty-six hours post-transfection, cells were lysed with Bright GLO lysis buffer and relative luciferase activities determined using the Britelite substrate and a luminescence counter as outlined above.
Chain of MeV RdRp (P12576 whole entry, change not shown): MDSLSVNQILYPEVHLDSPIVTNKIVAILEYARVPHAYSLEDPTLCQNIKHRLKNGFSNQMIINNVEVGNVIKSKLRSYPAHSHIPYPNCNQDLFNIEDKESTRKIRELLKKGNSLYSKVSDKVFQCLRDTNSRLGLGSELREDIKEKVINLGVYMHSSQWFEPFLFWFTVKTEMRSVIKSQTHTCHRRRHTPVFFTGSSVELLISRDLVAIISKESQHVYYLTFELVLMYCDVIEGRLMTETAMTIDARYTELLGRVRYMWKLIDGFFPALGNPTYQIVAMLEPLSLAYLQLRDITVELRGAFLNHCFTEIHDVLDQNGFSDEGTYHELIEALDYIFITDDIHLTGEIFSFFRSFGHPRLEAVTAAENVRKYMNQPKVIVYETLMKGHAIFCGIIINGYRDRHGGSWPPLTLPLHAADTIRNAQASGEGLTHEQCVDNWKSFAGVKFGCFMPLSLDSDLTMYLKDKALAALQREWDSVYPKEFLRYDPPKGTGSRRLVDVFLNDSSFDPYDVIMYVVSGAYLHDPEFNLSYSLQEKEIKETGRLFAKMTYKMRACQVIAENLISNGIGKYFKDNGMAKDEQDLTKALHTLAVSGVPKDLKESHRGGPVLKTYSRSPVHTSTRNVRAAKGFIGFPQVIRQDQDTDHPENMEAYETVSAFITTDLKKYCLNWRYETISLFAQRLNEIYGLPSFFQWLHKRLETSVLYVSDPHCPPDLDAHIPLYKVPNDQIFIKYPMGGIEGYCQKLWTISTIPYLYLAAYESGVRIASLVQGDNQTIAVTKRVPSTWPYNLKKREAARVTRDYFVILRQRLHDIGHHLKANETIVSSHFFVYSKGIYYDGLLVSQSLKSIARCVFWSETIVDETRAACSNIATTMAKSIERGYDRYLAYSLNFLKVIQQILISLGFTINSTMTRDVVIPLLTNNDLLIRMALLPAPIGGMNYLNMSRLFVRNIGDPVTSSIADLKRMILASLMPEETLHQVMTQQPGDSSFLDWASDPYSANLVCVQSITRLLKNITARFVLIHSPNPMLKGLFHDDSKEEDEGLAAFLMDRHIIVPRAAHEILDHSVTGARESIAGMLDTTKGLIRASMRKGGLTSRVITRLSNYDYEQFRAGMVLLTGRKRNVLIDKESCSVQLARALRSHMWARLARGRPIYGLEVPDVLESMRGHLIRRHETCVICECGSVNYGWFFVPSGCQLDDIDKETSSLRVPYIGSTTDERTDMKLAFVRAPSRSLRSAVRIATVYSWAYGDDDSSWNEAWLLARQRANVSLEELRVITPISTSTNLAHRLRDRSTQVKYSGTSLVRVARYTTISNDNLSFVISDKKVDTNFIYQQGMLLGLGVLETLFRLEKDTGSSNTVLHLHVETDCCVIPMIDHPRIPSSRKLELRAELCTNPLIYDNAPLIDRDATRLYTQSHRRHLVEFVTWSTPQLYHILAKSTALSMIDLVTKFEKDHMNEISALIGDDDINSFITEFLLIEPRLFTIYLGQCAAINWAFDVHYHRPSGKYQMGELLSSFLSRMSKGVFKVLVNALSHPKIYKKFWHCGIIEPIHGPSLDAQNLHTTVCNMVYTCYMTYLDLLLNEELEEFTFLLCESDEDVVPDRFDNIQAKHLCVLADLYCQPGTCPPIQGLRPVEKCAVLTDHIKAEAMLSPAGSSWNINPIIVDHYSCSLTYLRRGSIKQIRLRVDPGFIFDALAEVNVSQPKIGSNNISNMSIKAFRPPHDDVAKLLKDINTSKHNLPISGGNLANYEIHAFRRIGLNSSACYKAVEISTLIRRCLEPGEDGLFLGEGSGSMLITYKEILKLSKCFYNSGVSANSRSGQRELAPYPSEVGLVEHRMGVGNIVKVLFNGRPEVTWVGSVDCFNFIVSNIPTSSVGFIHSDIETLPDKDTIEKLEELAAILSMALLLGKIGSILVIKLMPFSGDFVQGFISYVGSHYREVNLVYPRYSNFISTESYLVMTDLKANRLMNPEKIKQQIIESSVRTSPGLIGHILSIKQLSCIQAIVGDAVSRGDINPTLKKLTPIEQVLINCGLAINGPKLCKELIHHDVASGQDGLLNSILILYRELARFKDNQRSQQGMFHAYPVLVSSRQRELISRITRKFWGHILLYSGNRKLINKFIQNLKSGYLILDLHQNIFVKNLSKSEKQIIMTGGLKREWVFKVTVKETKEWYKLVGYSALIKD
Chain of MeV RdRp (P03422 whole entry partner): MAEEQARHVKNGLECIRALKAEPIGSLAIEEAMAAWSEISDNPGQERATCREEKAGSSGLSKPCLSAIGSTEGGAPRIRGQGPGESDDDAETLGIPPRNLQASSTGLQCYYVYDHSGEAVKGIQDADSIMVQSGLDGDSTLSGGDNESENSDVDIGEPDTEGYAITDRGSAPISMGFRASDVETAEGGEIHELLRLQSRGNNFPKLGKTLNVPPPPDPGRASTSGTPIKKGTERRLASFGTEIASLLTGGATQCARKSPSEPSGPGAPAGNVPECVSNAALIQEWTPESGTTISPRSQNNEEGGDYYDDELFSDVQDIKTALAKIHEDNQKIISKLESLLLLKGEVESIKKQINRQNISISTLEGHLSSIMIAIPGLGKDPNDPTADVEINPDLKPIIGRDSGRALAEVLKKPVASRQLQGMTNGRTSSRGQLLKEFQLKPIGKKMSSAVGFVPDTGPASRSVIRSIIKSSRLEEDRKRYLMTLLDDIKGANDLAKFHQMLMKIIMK
Chain of MeV RdRp (P0DXN6 whole entry partner): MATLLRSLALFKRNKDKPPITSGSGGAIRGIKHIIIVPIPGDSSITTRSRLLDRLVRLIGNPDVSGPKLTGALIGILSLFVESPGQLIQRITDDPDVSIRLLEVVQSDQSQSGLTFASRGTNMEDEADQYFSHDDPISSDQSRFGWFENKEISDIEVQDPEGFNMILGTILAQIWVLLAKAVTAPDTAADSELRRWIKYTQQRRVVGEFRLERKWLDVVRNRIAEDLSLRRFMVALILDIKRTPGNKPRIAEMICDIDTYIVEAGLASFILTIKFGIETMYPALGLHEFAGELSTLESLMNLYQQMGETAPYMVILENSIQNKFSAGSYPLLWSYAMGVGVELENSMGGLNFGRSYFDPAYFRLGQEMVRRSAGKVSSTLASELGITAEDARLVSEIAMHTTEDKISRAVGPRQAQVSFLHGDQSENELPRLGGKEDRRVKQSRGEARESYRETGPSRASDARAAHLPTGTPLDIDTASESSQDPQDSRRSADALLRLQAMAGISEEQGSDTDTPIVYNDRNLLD
(In antiviral work, replicon cells carry a viral genome segment that copies itself.)

Data set [18] deals with MeV (Alaska). In words: microbe, parasite or virus in culture. It is filed as cell-based, measles virus isolate MVi/Alaska.USA/16.00. To be noted: Measles morbillivirus.

For the compound `COc1ccc(-n2c(SC(C)C(=O)Nc3ccc(C)cc3Cl)nc3ccccc32)cc1` (stereo not shown) [JMN3-003], in [1], the “activity against sindbis virus” value was “to a lesser degree”. Besides, the “MeV glycoprotein-mediated cell-to-cell fusion” value in data set [2] is recorded as “extensive membrane fusion indistinguishable from that seen in vehicle-treated controls”. The CC50 at 24 h in [3], in data set [13] and in data set [14] was greater than 75000 nM in each case. Also, in data set [4], the “antiviral effect of preincubation of viral particles (virucidal activity)” value was “lacked any appreciable antiviral effect”. For the same compound, the EC50 was 33 ± 31 nM in data set [5]; 10 to 80 nM in data set [8] (range depending on the target virus, read-out: active concentrations (anti-myxovirus activity)); roughly 40 nM in data set [8] (unidentified influenza virus, read-out: average EC50 concentrations); 40 ± 10 nM in data set [9]; 10 ± 3 nM in data set [16]; 90 ± 50 nM in data set [18] (PBMC, hPBMC from a mixed pool of healthy donors, four-parameter non-linear regression, read-out: EC50, MeV-Alaska grown on human PBMCs). In addition, the EC50 in [18] (read-out: EC50, MeV (Alaska)) was 30 ± 20 nM; in data set [18] (Vero-Slam, comparison curve of figure 2, read-out: EC50, MeV-Alaska grown on Vero-Slam cells), 40 ± 20 nM. In data set [6], the “expression of virus-encoded proteins, paramyxovirus infection” value is reported as “fully blocked”. Moreover, the “proliferation rates after removal of compound” value in data set [7] is reported as “proliferation rates resumed those of untreated control cells”. Moreover, the “DNA content of treated cells by flow cytometry” value in data set [10] is “accumulation of cells in a single population with 2N DNA content”. In addition, the “expression of virus-encoded proteins, orthomyxovirus infection” value in data set [11] is on record as “fully blocked”. In addition, the “drop in relative viral antigenome levels” value in data set [12] is reported as greater than 100 fold. Besides, the “reduction in genome copies of released progeny virions” value in [12] is reported as > 10,000 fold. For the same compound, the “stability in human plasma” value in data set [15] is on record as “virtually unaffected”. Also, the “concentration at which luciferase reporter expression was fully blocked” value in [17] is reported as “approximately 100 nM”.

The values are drawn from publication PMC3095640, “Potent Host-Directed Small-Molecule Inhibitors of Myxovirus RNA-Dependent RNA-Polymerases” (PLoS ONE, 2011).
